Measurements published in article PMC8400920, “Metabolism of Diterpenoids Derived from the Bark of Cinnamomum cassia in Human Liver Microsomes” (Pharmaceutics, 2021).
Structures can show the parent of a compound that is named as a salt.

Key:
[1] = tested on: human liver microsomes (HLMs); assay: Metabolic stability of seven diterpenoids in human liver microsomes; format: in vitro ADME; conditions: 10 µM, 0.5 mg/mL HLMs, NGS, 37 °C
Description: For metabolism profiling, 10 µM of each of the seven compounds isolated from C. cassia bark was added to 0.5 mg/mL of pooled HLMs and 0.1 M potassium phosphate buffer (pH 7.4). The HLMs were then preincubated at 37 °C for 1 min. After adding NGS, the reaction mixture was incubated at 37 °C for 60 min. After the 60 min incubation period, 50 µL of the reaction mixture was transferred to a new tube, and 50 µL of 100% ACN containing 0.1% formic acid and tolbutamide (internal standard) was added to terminate the reaction. The mixture was then vortexed, followed by centrifugation at 15,700× g (13,000 rpm) for 10 min (Eppendorf AG, Hamburg, Germany). Finally, 90 µL of the supernatant was transferred to a vial and injected into a C18 column for LC–MS/MS analysis.
The metabolism screening of the seven compounds was performed using an HPLC system (Thermo Fisher Scientific, Bremen, Germany) equipped with an HPG-3200SD standard binary pump, a WPS-3000 TRS analytical autosampler, and a TCC-3000 SD column compartment. The HPLC system was coupled with an HR-MS (Q-Exactive Focus Quadrupole-Orbitrap MS; Thermo Fisher Scientific, Waltham, MA, USA) at the Mass Spectrometry Convergence Research Center. The full MS resolution and scan ranges were 70,000 and 60–900 m/z, respectively. The MS/MS resolution was 35,000. The mass spectra were obtained in negative ion electrospray mode. A heated electrospray ionization (HESI-II) probe was used as an ion generator, with nitrogen as the sheath gas at 35 aux units and auxiliary gas at 12 aux units. The mass spectrometer was operated in negative ionization mode. The other parameters were as follows: spray voltage, 3.5 kV; capillary temperature, 320 °C; S-lens radio frequency level, 50; and aux gas heater temperature, 400 °C.
The mobile phase consisted of 100% water with 0.1% formic acid (mobile phase A) and 100% ACN with 0.1% formic acid (mobile phase B). For metabolic stability, the gradient conditions were set as follows: 5% of B at 0.5–2.0 min, 5–50% of B at 2.0–4.5 min, 50% of B at 4.5–7.0 min, and 50–5% of B at 7.0–10.0 min at 40 °C with a flow rate of 0.2 mL/min. For metabolite identification, the gradient conditions were as follows: 10% of B at 0–5 min, 10–55% of B at 5–15 min, 55% of B at 15–23 min, and 55–10% of B at 23–30 min with a flow rate of 0.25 mL/min. Chromatographic separation was performed using a Kinetex C18 column (150 × 2.1 mm, 2.6 μm, XB-C18 100 Å, S/No: H19-070128; Phenomenex, Torrance, CA, USA). Data were analyzed using Xcalibur version 4.0 software (Thermo Fisher Scientific, Waltham, MA, USA).
To confirm their metabolic stability, seven diterpenoids (AHC, anhydrocinnzeylanol, cinncassiol A, cinncassiol B, cinnzeylanol, cinnzeylanone, and cinnzeylanine) derived from the bark of C. cassia were incubated with HLMs in the presence of the NGS for 60 min (Figure 1B). The metabolic stability of each compound was determined according to the ratio of the peak area at 60 min to that at 0 min. […] Therefore, we identified the metabolites of AHC produced in HLMs.

[2] = tested on: CYPs; assay: Metabolism of AHC in HLMs with SKF-525A, a nonselective CYP inhibitor; format: in vitro ADME, human; conditions: 10 µM AHC, 1 mg/mL HLMs, NGS, 60 min
Description: To investigate CYP-mediated metabolism, 10 µM AHC was mixed with 1 mg/mL pooled HLMs and 0.1 M potassium phosphate buffer (pH 7.4). Then, SKF-525A, a general inhibitor of CYPs, was added at concentrations of 0.5, 1, and 5 mM. The reactions were initiated with the addition of NGS at […] for 60 min. After 60 min, the reactions were terminated by adding 400 µL of 100% acetonitrile. The mixtures were then centrifuged at 15,700× g for 10 min. Subsequently, 550 µL of supernatant was dried in a vacuum concentrator. The residue was dissolved in 100 µL of 20% MeOH (0.1% formic acid), and 5 µL of this sample was injected into a C18 column for LC–MS/MS analysis.
To confirm the metabolism of AHC by CYP enzymes, AHC was incubated in HLMs with SKF-525A, i.e., a nonspecific CYP inhibitor (Figure S7). […] Consequently, as the metabolism of AHC was inhibited by SKF-525A treatment, the production of all metabolites was reduced in an SKF-525A concentration-dependent manner.

effect of SKF-525A on the metabolism of AHC in HLMs [2] | Compound | decrease of stability in HLMs (peak area 60 min vs 0 min) [1] | fraction metabolized in HLMs (metabolized by) ([1]; 60 min) [%]
– | CC1=C(C(C)C)C[C@@]2(O)[C@@]3(C)CC(=O)O[C@@]4([C@H](O)[C@@H](C)CC[C@]34O)[C@@]12O [anhydrocinnzeylanol] | approximately 20% | 20
inhibited | CCCC(C(=O)OCCN(CC)CC)(c1ccccc1)c1ccccc1 [SKF-525A, proadifen hydrochloride, reference compound] | – | –
– | CC1CCC2(O)C3(C)CC4(O)OC2(C1=O)C1(O)C3(O)CC(O)(C(C)C)C41C (stereo not shown) [cinnzeylanone] | approximately 20% | –
